From ChEMBL document CHEMBL1157823, “Cyclopeptide Smac mimetics as antagonists of IAP proteins” (Bioorg Med Chem Lett, 2010)

Tests used:
MDA-MB-231 = experiment: Cytotoxicity against human MDA-MB-231 cells after 4 days by WST-8 assay; details: MDA-MB-231, 96 h
[1] = target: Baculoviral IAP repeat-containing protein 2 (Homo sapiens, UniProt Q13490); experiment: Binding affinity to cIAP1 BIR3 domain by fluorescence polarization assay
SK-OV-3 = experiment: Cytotoxicity against human SKOV3 cells after 4 days by WST-8 assay; details: SK-OV-3, 96 h
[2] = target: T1, E3 ubiquitin-protein ligase XIAP (Homo sapiens, UniProt P98170); experiment: Antagonist activity at XIAP BIR3 domain assessed as restoration of caspase 9 activity by caspase-Glo 9 assay; format: functional
[3] = target: T1, E3 ubiquitin-protein ligase XIAP; experiment: Binding affinity to XIAP linker BIR2-BIR3 domain site 2 by fluorescence polarization assay
[4] = target: T1, E3 ubiquitin-protein ligase XIAP; experiment: Binding affinity to XIAP linker BIR2-BIR3 domain site 1 by fluorescence polarization assay

T1 sequence (P98170 whole entry, the tested form may be a part): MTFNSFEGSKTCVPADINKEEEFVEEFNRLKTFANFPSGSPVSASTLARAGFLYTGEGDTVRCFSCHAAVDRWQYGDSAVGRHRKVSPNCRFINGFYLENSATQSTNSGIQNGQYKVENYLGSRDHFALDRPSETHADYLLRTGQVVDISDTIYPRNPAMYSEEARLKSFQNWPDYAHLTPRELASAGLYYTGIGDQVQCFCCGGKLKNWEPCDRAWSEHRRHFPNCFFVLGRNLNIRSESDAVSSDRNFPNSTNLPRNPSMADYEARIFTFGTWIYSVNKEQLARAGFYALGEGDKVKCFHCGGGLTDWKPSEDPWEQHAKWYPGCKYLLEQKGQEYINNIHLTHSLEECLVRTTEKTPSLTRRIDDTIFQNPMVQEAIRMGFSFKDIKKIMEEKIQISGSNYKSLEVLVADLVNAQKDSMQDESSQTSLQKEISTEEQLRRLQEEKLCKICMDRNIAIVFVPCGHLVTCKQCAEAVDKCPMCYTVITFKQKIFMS
Chain of Baculoviral IAP repeat-containing protein 2 (Q13490 whole entry, the tested form may be a part): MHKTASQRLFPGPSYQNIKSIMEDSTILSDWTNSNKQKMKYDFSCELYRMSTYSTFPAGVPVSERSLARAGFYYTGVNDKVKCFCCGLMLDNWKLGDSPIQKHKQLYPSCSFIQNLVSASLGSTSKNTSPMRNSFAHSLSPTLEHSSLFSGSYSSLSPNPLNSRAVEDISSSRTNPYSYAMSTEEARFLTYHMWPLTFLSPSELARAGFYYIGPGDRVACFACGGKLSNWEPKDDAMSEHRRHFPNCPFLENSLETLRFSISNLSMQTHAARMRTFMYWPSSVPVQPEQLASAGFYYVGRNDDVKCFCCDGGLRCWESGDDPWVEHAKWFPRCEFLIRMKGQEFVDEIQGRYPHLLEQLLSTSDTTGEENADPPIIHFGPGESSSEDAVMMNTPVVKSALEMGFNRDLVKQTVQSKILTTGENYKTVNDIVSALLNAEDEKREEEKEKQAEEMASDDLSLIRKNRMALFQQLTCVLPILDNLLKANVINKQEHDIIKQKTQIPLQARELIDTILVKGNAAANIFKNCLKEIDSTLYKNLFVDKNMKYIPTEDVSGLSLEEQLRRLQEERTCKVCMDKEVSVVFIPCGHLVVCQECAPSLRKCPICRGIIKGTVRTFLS

| SMILES | IC50 (MDA-MB-231) [µM] | Ki [1] [µM] | IC50 (SK-OV-3) [µM] | Activity [2] | IC50 [3] [µM] | IC50 [4] [µM] |
| --- | --- | --- | --- | --- | --- | --- |
| CN[C@@H](C)C(=O)N[C@H]1CCCCn2cc(nn2)[C@H](Cc2ccccc2)NC(=O)[C@@H]2CCCN2C(=O)[C@@H](NC(=O)[C@H](C)NC)CCCCn2cc(nn2)[C@H](Cc2ccccc2)NC(=O)[C@@H]2CCCN2C1=O | 25.9 | 0.161 | 31.5 | Dose-dependent effect | – | – |
| CN[C@@H](C)C(=O)N[C@H]1CCCCn2cc(nn2)[C@H](c2ccccc2)NC(=O)[C@@H]2CCCN2C(=O)[C@@H](NC(=O)[C@H](C)NC)CCCCn2cc(nn2)[C@H](c2ccccc2)NC(=O)[C@@H]2CCCN2C1=O | – | – | – | Dose-dependent effect | – | – |
| CN[C@@H](C)C(=O)N[C@H]1CCCNC(=O)[C@H](Cc2ccccc2)NC(=O)[C@@H]2CCCN2C(=O)[C@@H](NC(=O)[C@H](C)NC)CCCNC(=O)[C@H](Cc2ccccc2)NC(=O)[C@@H]2CCCN2C1=O | 4.6 | 0.084 | 15.9 | Dose-dependent effect | 0.481 | 0.001 |
